In publication PMC12066977, “Alkyl Tail Variation on Chalcone‐Based Quaternary Pyridinium Salts as Rule‐of‐Thumb for Antimicrobial Activity” (Archiv Der Pharmazie, 2025):
Read-outs that look alike come from different tables or passages of the source.

Columns and labels:
S. aureus biofilm = assay: Inhibition of biofilm formation (crystal violet staining); format: cell-based; conditions: Staphylococcus aureus, 24 h, CV staining, read-out: inhibition of S. aureus biofilm production
Description: (§1) The ability of some selected compounds to inhibit biofilm formation was assessed by established protocols with minor modifications. In short, exponential cultures of S. aureus, E. coli, and C. albicans grown in Tryptic Soy broth (TSB, Sigma‐Aldrich, St. Louis, MO, USA) were adjusted to a final density of 10^5 CFU/mL. Aliquots of 100 µL of the microbial cultures were transferred to a 96‐well flat‐bottom polystyrene microplate, and then incubated at 37°C for 90 min to promote bacterial adhesion. Thereafter, wells were slowly rinsed with PBS to remove nonattached cells, and 100 µL of TSB supplemented with 1% glucose containing the twofold serial dilutions of the compounds was added. After incubation at 37°C for 24 h, the free‐floating cells were removed, and the biofilms were carefully washed with PBS. The biomass was quantified by a standardized crystal violet (CV) staining. Briefly, 100 µL of CV solution (0.1% in water) was added to each well containing a completely air‐dried biofilm, and incubated for 30 min at 37°C. […] Finally, the colored supernatants were transferred to a new microplate, and the OD550nm was measured. The percentage inhibition of biofilm formation in the different experimental conditions was calculated relative to the biofilm mass formed in the absence of compounds (positive control).

E. coli biofilm = assay: as above; format: cell-based; conditions: Escherichia coli, 24 h, CV staining, read-out: inhibition of E. coli biofilm production
Description: as §1

[1] = tested on: human red blood cells (hRBCs); assay: Hemolytic activity assay; format: cell-based; conditions: 25 µM, 90 min, 37°C
Description: The hemolytic activity of some selected compounds was evaluated as the amount of hemoglobin released by the disruption of human red blood cells (hRBCs). For the experiments, fresh hRBCs were collected by centrifugation at 1500g for 10 min, washed three times with PBS, and resuspended to a final concentration of 4% w/v hRBCs in PBS. Then, 100 µL of hRBCs suspension and an equal volume of the twofold dilutions of the antimicrobial peptides were mixed in a 96‐well plate and incubated for 90 min at 37°C. After centrifugation at 1000g for 5 min, the supernatants were transferred into a clear 96‐well plate, and OD405nm was read. Untreated hRBCs (incubated with PBS) and hRBCs incubated with 1% Triton X‐100 were employed as negative and positive controls, respectively. The hemolysis percentage was calculated as [OD405nm (sample) − OD4_05nm (negative control)]/[OD405nm (positive control) − OD405nm (negative control)] × 100. Minimal hemolytic concentrations (MHCs) were defined as the compound concentration causing 10% hemolysis. Three independent experiments were performed in triplicate.

[2] = Cell viability and proliferation assay (WST8/CCK-8); format: cell-based; conditions: African green monkey, Vero cells (ATCC CCL-81), 48 h treatment, CCK-8; read-out: CC50 [95% CI] Vero cells
Description: (§2) Vero cell line (ATCC CCL‐81) was selected as a model system to investigate the overall effect of chalcones on non‐malignant mammalian cells. […] For experiments, cells were seeded into 96‐well plates at 10^4 cells/well and incubated at 37°C for 24 h. Following washes with PBS, the cell monolayer was incubated with 100 µL of medium containing the twofold serial dilutions of the compounds. Both untreated cells and cells incubated with medium containing solvent dilutions were included in each experiment as controls. The cell viability was assessed by a WST8‐based assay according to the manufacturer's instructions (CCK‐8, Cell Counting Kit‐8, Dojindo Molecular Technologies, Rockville, MD, USA). After 48 h of incubation, culture medium was removed from each well, the monolayer was washed with PBS, and 100 µL of fresh medium containing 10 µL of CCK‐8 solution was added. Following a 2 h incubation at 37°C, the OD450nm was read, and data were expressed as the percentage of cell viability relative to the untreated controls. The CC50 was obtained on the corresponding dose–response curves generated as previously reported for IC50 values. Experiments were carried out in triplicate in three biological replicates.

C. albicans ATCC 10231 [3] = assay: Broth microdilution antimicrobial assay (MIC, IC50); format: cell-based; conditions: Candida albicans, 24 h; for MIC: ATCC10231, broth microdilution, 37°C
Description: (§3) Reference strains of Staphylococcus aureus (ATCC 25923), Escherichia coli (ATCC 25922), and Candida albicans (ATCC 10231) were used in this study as microbial models. These strains were purchased from the American Type Culture Collection (ATCC); bacterial cultures were routinely grown on 5% blood agar plate, while fungal cultures on Sabouraud Dextrose Agar (Biolife […]., Milan, Italy). […] In short, microbial inocula were prepared at 0.5 McFarland in PBS and, subsequently, bacterial suspensions were diluted 1:200 in Mueller-Hinton broth (Sigma-Aldrich, St. Louis, MO, USA), while fungal inoculum was diluted 1:20 in RPMI-1640 medium (Gibco®, ThermoFisher Scientific Inc., Waltham, MA, USA), containing glucose 2%, 0.3% levo-glutamine buffered to pH 7.0 with 0.165 M 3-(N-morpholino) propanesulfonic acid (MOPS). A total of 100 μL of these microbial suspensions was introduced into a 96-well microplate and incubated with 100 μL of the compounds, two-fold serially diluted in the range of 100-0.19 μM. Positive controls (microbial suspensions in regular media), negative controls (only compounds), and solvent controls (microbial suspensions incubated with DMSO dilutions) were included in the tests. The plate was incubated at 37°C for 24 h, and subsequently the optical density at 630 nm (OD630nm) was spectrophotometrically measured. Experiments were carried out in triplicate in three biological replicates. […] Statistical analysis was carried out by using GraphPad Prism version 9.4.1 for Windows (GraphPad Software, San Diego, California USA, www.graphpad.com). ^a MIC (Minimum Inhibitory Concentration) were determined in vitro by means of a standardized microdilution assay, in compliance with the Clinical and laboratory Standard Institute (CLSI) guidelines (30). Microbial suspensions were prepared at 0.5 McFarland in PBS, then diluted in the media and transferred in a 96 micro-well plate together with the serially 2-fold dilutions of the compounds. After 24h of incubation at 37°C, microbial growths were evaluated by measuring the Optical Density at 600 nm, then percentage values were obtained as relative to the positive controls (microbial suspensions in regular media).

S. aureus ATCC 25923 = assay: as above; format: cell-based; conditions: Staphylococcus aureus; for IC50: ATCC25923, 50% growth inhibition, 24 h, read-out: IC50 [95% confidence interval] Staphylococcus aureus; for MIC: ATCC25923, 24 h, broth microdilution, 37°C
Description: as §3

E. coli ATCC 25922 = assay: as above; format: cell-based; conditions: Escherichia coli, 24 h; for MIC: ATCC25922, broth microdilution, 37°C
Description: as §3

C. albicans ATCC 10231 [4] = conditions: lead compound 1, previously reported; read-out: IC50 [95% confidence interval] Candida albicans; cited from earlier work
Leishmania donovani = tested on: Leishmania donovani; design: method as in PMID 30669643, PMID 29758517; conditions: lead compound 1, previously reported; read-out: IC50 against Leishmania donovani; cited from earlier work
[5] = tested on: S. aureus ATCC 25923, E. coli ATCC 25922, C. albicans ATCC 10231; assay: Broth microdilution antimicrobial assay, statements pooled over the three strains; format: cell-based; conditions: stated for S. aureus, E. coli and C. albicans together; read-out: MIC toward the three selected strains
Description: The antimicrobial activity of the compounds was assessed by determining the Minimum Inhibitory Concentration (MIC) by a well‐established broth microdilution procedure in microtiter plates and in compliance with the Clinical and Laboratory Standards Institute (CLSI) guidelines.
In short, microbial inocula were prepared at 0.5 McFarland in PBS and, subsequently, bacterial suspensions were diluted 1:200 in Mueller–Hinton broth (Sigma‐Aldrich, St. Louis, MO, USA), while fungal inoculum was diluted 1:20 in RPMI‐1640 medium (Gibco®, ThermoFisher Scientific Inc., Waltham, MA, USA), containing glucose 2%, 0.3% levo‐glutamine buffered to pH 7.0 with 0.165 M 3‐(N‐morpholino) propanesulfonic acid (MOPS). A total of 100 µL of these microbial suspensions was introduced into a 96‐well microplate and incubated with 100 µL of the compounds, two‐fold serially diluted in the range of 100–0.19 µM. Positive controls (microbial suspensions in regular media), negative controls (only compounds), and solvent controls (microbial suspensions incubated with DMSO dilutions) were included in the tests. The plate was incubated at 37°C for 24 h, and subsequently the optical density at 630 nm (OD630nm) was spectrophotometrically measured. Experiments were carried out in triplicate in three biological replicates. […]

Vero cells (ATCC CCL-81) = assay: Cell viability and proliferation assay (WST8/CCK-8); format: cell-based; conditions: 48 h treatment, CCK-8; read-out: CC50 [95% CI] Vero cells
Description: as §2

SMILES | inhibition at 25 µM (S. aureus biofilm) | inhibition at 25 µM (E. coli biofilm) | hemolytic activity [1] | CC50 at 48 h [2] | IC50 (C. albicans ATCC 10231 [3]; ATCC10231, 50% growth inhibition, read-out: IC50 [95% confidence interval] Candida albicans) | MIC (C. albicans ATCC 10231 [3]) | IC50 (S. aureus ATCC 25923) | MIC (S. aureus ATCC 25923) | IC50 (E. coli ATCC 25922; ATCC25922, 50% growth inhibition, read-out: IC50 [95% confidence interval] Escherichia coli) | MIC (E. coli ATCC 25922) | IC50 (C. albicans ATCC 10231 [4]) | IC50 (Leishmania donovani) | MIC [5] | CC50 (Vero cells (ATCC CCL-81))
C#CCOc1ccc(C(=O)/C=C/c2ccc[n+](CCCCCCCCCC)c2)c(OCC#C)c1.[Br-] [Compound 4, (E)‐3‐{3‐[2,4‐Bis(prop‐2‐yn‐1‐yloxy)phenyl]‐3‐oxoprop‐1‐en‐1‐yl}‐1‐decylpyridin‐1‐ium bromide] | > 90% | > 90% | 30.0% | 12.8 µM | 4.28 µM | 6.25 µM | 0.84 µM | 1.56 µM | 4.48 µM | 6.25 µM |  |  |  | 
C#CCOc1ccc(C(=O)/C=C/c2cccnc2)c(OCC#C)c1 [Compound 1] |  |  |  |  |  |  | 47.6 µM |  |  | > 100 µM | 43.8 µM | 4 µM |  | 
C#CCOc1ccc(C(=O)/C=C/c2cccnc2)c(OCC#C)c1 [Compound 9, (E)‐3‐{3‐[2,4‐Bis(prop‐2‐yn‐1‐yloxy)phenyl]‐3‐oxoprop‐1‐en‐1‐yl}pyridin‐1‐ium bromide] |  |  |  |  |  | > 100 µM |  | > 100 µM |  |  |  |  | ≥ 50 µM | 6.2 µM
